We go through one compound from US20210169078A1, “AGENT FOR SUPPRESSING MICROBIAL GROWTH, METHOD FOR PREVENTING MICROBIAL CONTAMINATION, AND BEVERAGE” (priority 2018, published 2021).

The structures appear in SMILES notation. Values after ≈ are worked out from the molar mass of the structure shown.

Assay type in all cases: cell-based
The test system of assay [1] is Clostridium difficile (spores) (Clostridium difficile ATCC 9689). The assay can be described thus: Agar plate dilution MIC test. The settings on record: Clostridioides difficile, ATCC9689; Clostridium difficile ATCC 9689 (spores); taurocholic acid-containing BHIA medium, 37 ± 1 °C, 18 to 20 hours, anaerobic.
Assay [2] concerns Bacillus welchii (Clostridium perfringens JCM 1290). Description: organism not typed. To be noted: 24 h.
Assay [3] has as its system Bacillus cereus (Bacillus cereus IFO 13494). The assay can be described thus: Agar plate dilution MIC test. To be noted: IFO13494, Mueller Hinton Agar, 37 ± 1 °C, 18 to 20 hours, aerobic.
Assay [4] relates to Staphylococcus aureus (Staphylococcus aureus subsp. aureus NBRC 12732). Description: Agar plate dilution MIC test. To be noted: NBRC12732, Mueller Hinton Agar, 37 ± 1 °C, 18 to 20 hours, aerobic.
Assay [5] deals with Thermo-Acidophilic Bacilli (Alicyclobacillus acidoterrestris ATCC 49025). Description: Agar plate dilution MIC test. To be noted: ATCC49025, 120 h, YSG agar medium, 50 ± 1 °C, 5 days, aerobic.

Broadly, the MIC is the least concentration at which growth counts as inhibited. Low readings indicate greater potency, high ones weaker potency. `COc1cc(O)c(CC=C(C)C)c2c1C(=O)CC(c1ccc(O)cc1)O2` (centres unmarked) [Isoxanthohumol]: the MIC in assay [1] stood at 50 µg/mL (≈ 141 µM); in assay [2], 50 µg/mL (≈ 141 µM); in assay [3] it was 50 µg/mL (≈ 141 µM); in assay [4], 50 µg/mL (≈ 141 µM); in assay [5], 25 µg/mL (≈ 70.5 µM).
